In publication PMC7281403, “Regulation of Tumor Immunity by Lysophosphatidic Acid” (Cancers, 2020):
Like-named read-outs stand apart in the source and are kept apart here. Values belong to the compound of their own block, whether it stands above or below them.

How the values were obtained:
ATX [1] = test system: ATX; design: method as in PMID 34788605; details: TILs from melanoma patients and peripheral CD8+ T cells; cited from earlier work
[2] = design: method as in PMID 15172836; details: cited from earlier work
lymphocyte = test system: lymphocyte; design: method as in PMID 11024010, PMID 11160288; details: bell shape dose-response curve dropping off above 1 µM; cited from earlier work
LPAR2 [3] = molecular target: T1, LPAR2 (Homo sapiens, UniProt Q9HBW0); design: method as in PMID 9525886; details: Jurkat T cells, LPAR2 plus SRE-driven luciferase reporter; cited from earlier work
LPAR1 [4] = test system: LPAR1; design: method as in PMID 9525886; details: Jurkat T cells, LPAR1 plus SRE-driven luciferase reporter; cited from earlier work
Jurkat cell line = test system: Jurkat cell line; design: method as in PMID 7775587; details: cotreatment with PMA compared to PMA alone; cited from earlier work
LPAR2 [5] = molecular target: T1, LPAR2; design: method as in PMID 11160288; details: LPA 10^−9–10^−6 M, anti-LPAR2 MAb 30–300 ng/mL; cited from earlier work
LPAR1 [6] = test system: LPAR1; design: method as in PMID 11160288; details: cited from earlier work
CD8+ T cells = test system: CD8+ T cells; design: method as in PMID 31231367; details: cited from earlier work
ATX [7] = molecular target: ATX (Homo sapiens, UniProt Q13822); test: ATX activity, fluorescent FS-3 substrate assay; type: biochemical; details: IC50 ± SD
LPAR5 [8] = molecular target: T2, LPAR5 (Homo sapiens, UniProt Q9H1C0); test: β-arrestin recruitment in LPAR5 expressing CHO-K1 cells; type: cell-based; design: expressed in transfected cells; details: LPA-induced β-arrestin recruitment, IC50 ± SD, NE = No effect, listed as TC-LPA5-4
From the text: (§1) As an example, inhibition of LPAR5 in distinct cell types, such as CD8^+ T cells could help boost its immunosurveillance activity against cancer and impede metastasis. There is currently no FDA-approved LPA receptor antagonist for cancer therapy. […] We obtained both TC-LPA5-4 and UA-02-085 and tested for LPAR5 antagonism in two independent assays: Ca^2+ mobilization and β-Arrestin recruitment. […] AGP is present in several tissues and biological fluids including tumor ascites, atherosclerotic plaques, aqueous humor of the eye, and in platelet rich plasma. Thus, alkyl-LPA might have multiple actions in the TME as well as the cancer cells. […] We included as a positive control, Amgen35, a compound originally discovered by AMGEN investigators to be a LPAR2 antagonist with an IC50 of 0.8 µM [136]. The AMGEN publication predated the discovery of the LPAR4-6. […] Amgen35 has also been reported to have off-target effects in vivo [136]. […] The other putative LPAR5 antagonist compound, AS2727638, reported by Astellas Pharma in Japan, has only been characterized at LPAR1-3 but not at the other LPAR with high homology of LPAR5 [121].

LPAR5 [9] = molecular target: T2, LPAR5; test: Ca2+ mobilization in LPAR5 expressing B103 cells; type: cell-based; design: expressed in transfected cells; host or cells: B103 cells
From the text: as §1

T2 sequence (Q9H1C0 whole entry, species assumed): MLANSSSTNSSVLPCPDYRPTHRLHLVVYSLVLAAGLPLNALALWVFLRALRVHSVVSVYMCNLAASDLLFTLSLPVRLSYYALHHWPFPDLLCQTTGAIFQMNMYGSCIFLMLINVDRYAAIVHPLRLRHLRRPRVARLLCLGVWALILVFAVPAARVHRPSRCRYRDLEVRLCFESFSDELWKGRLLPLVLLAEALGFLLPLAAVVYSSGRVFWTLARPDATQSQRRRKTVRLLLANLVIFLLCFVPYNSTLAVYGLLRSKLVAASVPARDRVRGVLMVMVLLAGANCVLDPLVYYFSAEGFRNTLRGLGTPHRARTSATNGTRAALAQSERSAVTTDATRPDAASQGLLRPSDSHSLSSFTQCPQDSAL
T1 sequence (Q9HBW0 whole entry, species assumed): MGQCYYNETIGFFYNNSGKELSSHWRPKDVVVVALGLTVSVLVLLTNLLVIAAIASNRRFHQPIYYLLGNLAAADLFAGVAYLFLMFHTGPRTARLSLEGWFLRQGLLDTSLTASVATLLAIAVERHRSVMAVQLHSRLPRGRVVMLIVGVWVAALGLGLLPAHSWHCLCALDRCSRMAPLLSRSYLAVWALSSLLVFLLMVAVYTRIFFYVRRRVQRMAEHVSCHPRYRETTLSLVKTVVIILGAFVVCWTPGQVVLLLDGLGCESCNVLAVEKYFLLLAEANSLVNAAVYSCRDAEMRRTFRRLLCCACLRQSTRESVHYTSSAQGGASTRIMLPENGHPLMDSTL

Compound: O=C(CCN1CCN(C(=O)OCc2cc(Cl)cc(Cl)c2)CC1)c1ccc2[nH]c(=O)oc2c1 [PF-8380]
- effect of conditioned media from ATX-expressing tumor cells on T cell migration in presence of ATX inhibitor (ATX [1]): failed to inhibit the migration of T cells

Compound: lysophosphatidic acid [LPA]
- critical micellar concentration ([2]; acyl group myristoyl): 1.850 mM
- critical micellar concentration ([2]; acyl group oleoyl): 0.346 mM
- critical micellar concentration ([2]; acyl group palmitoyl): 0.540 mM
- critical micellar concentration ([2]; acyl group stearoyl): 0.082 mM
- concentration of maximal efficiency in modulating lymphocyte responses (lymphocyte): 10^−10 to 10^−8 M
- LPA-dependent luciferase expression (LPAR2 [3]): 20 fold over control
- LPA-dependent luciferase expression (LPAR1 [4]): 5 fold over control
- increase in IL-2 secretion (Jurkat cell line): five-fold
- transmigration of LPAR2 Jurkat transfectants (LPAR2 [5]): stimulated the transmigration
- migratory response in LPAR1 Jurkat transfectants (LPAR1 [6]): neither LPA nor the anti-LPAR1 MAb induced a migratory response

Compound: CCCCCCCCCCCCCCCCCCOP(O)(O)=S [OTP, octadecyl thiophosphate]
- in vitro tumor cell killing function (CD8+ T cells; mouse and human CD8+ T cells): decreased in vitro tumor cell killing function
- granule exocytosis (CD8+ T cells; stimulation of CD8+ T cells): impaired granule exocytosis

Compound: C[C@H](NC(=O)CCc1nc2cccnc2n1Cc1ccc(OC(F)(F)F)cc1)c1ccc(Cl)cc1 [IOA-289]
- effect of conditioned media from ATX-expressing tumor cells on T cell migration in presence of ATX inhibitor (ATX [1]): failed to inhibit the migration of T cells

- IC50 (ATX [7]): 7.1 ± 0.6 µM
- LPAR5 IC50 (β-arrestin) (LPAR5 [8]): inactive
- LPAR5 IC50 (Ca^2+ Mobilization) (LPAR5 [9]; LPA-induced Ca2+ mobilization, LPAR5 expressing B103 cells, IC50 ± SD, NE = No effect, listed as TC-LPA5-4): inactive
- Inhibition of AGP-induced Ca^2+ mobilization (LPAR5 [9]; agonist alkyl glycerophosphate (AGP), unpublished): failed to inhibit
Compound: COc1cccc(-n2nc(C(=O)O)cc2-c2ccc(C3CCCCC3)c(Cl)c2)c1 [TC-LPA-5]
